# Entries after “also recorded” stand apart in the source; their conditions may differ.
# How the values were obtained:
# [1] = test system: spontaneous PBC-like disease in NOD.c3c4 mice; test: Treatment of spontaneous PBC-like disease in NOD.c3c4 mice; assay type: in vivo, mouse; conditions: FIG. 2
# Source text: FIG. 2 illustrates the effect of treatment with αGalCer (KRN7000)/CD1d-coated NPs vs soluble KRN7000 or uncoated NPs on readouts of PBC in NOD.c3c4 mice. CBD, Common Bile Duct.
# iNKT cells = test: Flow cytometry of iNKT cells (αGalCer/CD1d tetramer stained) from treated NOD.c3c4 mice; assay type: in vivo, mouse
# Source text: FIG. 3 illustrates the effect of treatment with αGalCer (KRN7000)/CD1d-coated NPs vs uncoated NPs on the CD4/CD8 phenotype of liver (top) and splenic (bottom) iNKT cells (stained with αGalCer (KRN7000)/CD1d tetramers).
# FIG. 4 illustrates the effect of treatment with αGalCer (KRN7000)/CD1d-coated NPs vs uncoated NPs on the levels of PD1, CD49d, CD69 and LAG3 in liver iNKT cells (stained with αGalCer (KRN7000)/CD1d tetramers).
# liver iNKT cells = test: RNA sequencing (RNAseq) of liver iNKT cells sorted from treated vs. untreated NOD.c3c4 mice; assay type: in vivo, mouse
# Procedure: FIG. 5 illustrates normalized RNA expression counts (±SEM) for iNKT-relevant genes in the liver iNKT cells of NOD.c3c4 mice treated with αGalCer (KRN7000)/CD1d-NPs vs. control NOD.c3c4 mice.
# To investigate this, RNA sequencing (RNAseq) studies of liver iNKT cells sorted from αGalCer/CD1d-NP-treated vs. untreated NOD.c3c4 mice was performed. […] When considering genes known to be expressed in various iNKT cell subsets (Gapin, L. (2016). “Development of invariant natural killer T cells” Curr. Opin. Immunol. 39, 68-74) including iNKT1 (Zbtb16 (PLZF)-low, Tbx21 (Tbet)+, Gata3−, Rorc (RORgt)−, Foxp3−, Maf−, Cd24−, Cd44+, Klrb1 (NK1.1)+, Ifbg+, IL2−, Il4+, Il17−, Il10−, Il21−, Il2rb (Cd122)+, Mirlet7 (LET-7)+, Znf683 (HOBIT)-high), iNKT2 (Zbtb16-high, Tbx21−, Gata3+, Rorc−, Maf−, Foxp3−, Cd24−, Cd44+, Klrb1−, Ifng−, Il2−, Il4+, Il17−, Il10−, Il21−, Il17rb+, Tnfsf11 (RANKL)+; and iNKT17 (Zbtb16-int, Tbx21−, Gata3−, Rorc+, Foxp3−, Maf-low, Cd24−, Cd44+, Klrb1-low/−, Il2−, il4−, Ifng−, Il17+, Il10−, Il21−, Tgfbr2+, Tnfsf11+), the liver iNKT cells of non-treated NOD.c3c4 mice appeared to be rather unique (Zbtb16+, Tbx21+, Gata3+, Rorc-low, Foxp3−, Maf-low, Cd24-low, Cd44+, Klrb1+, Il2−, Il4-low, Ifng+, Il17−, Il10−, Il21−, Il2rb+, Il17rb-low, Tgfbr2+, Mirlet7−, Znf683−, Tnfsf11−). Remarkably, the liver iNKT cells from treated animals were somewhat similar to the latter, except that they were Rorc−, Maf-high, Il10-high, Il21-high, Il2rb+, Il17rb− and Tgfbr2-low. […] The liver iNKT cells of treated mice were also different from αGalCer-induced NKT10 cells, based on available gene expression data (Il10+, Klrb1-low, Nfil3+ (E4BP4, which regulates IL-10 and IL-13 expression), Nrp1+, Itga4+, Itgae−, Ctla4+, Fr4+, Bcl6−, Il7r+, Slamf6-high, Icos+) (Sag et al., 2014). Unlike these iNKT10 cells, the liver iNKT cells from treated mice were Nfli3−, Nrp1-low, Fr4−, Bcl6-low and Il7r-low. […] These observations were substantiated by comparing the liver iNKT RNAseq data from αGalCer/CD1d-NP-treated and untreated mice to iNKT1, iNKT2, iNKT10 and iNKT17 RNAseq data from Engel et al. (Engel, I., et al. (2016). “Innate-like functions of natural killer T cell subsets result from highly divergent gene programs” Nat. Immunol. 17, 728-739.) (FIG. 6A to 6D)
# To ascertain if some of the gene expression differences that were observed between the liver iNKT cells of αGalCer/CD1d-NP-treated and untreated mice were driven, at least in part, by their unique transcriptional factor expression profile, which transcription factors were associated with expression of differentially expressed genes was determined.
# Consequently, these αGalCer/CD1d-NP-induced liver iNKT cells are called iNKTR1 cells.
# [2] = test system: CD11b+ APCs from liver-draining LNs and liver Kupffer cells; test: Suppression of antigen presentation by APCs by liver iNKT cells from treated mice; assay type: cell-based, mouse; conditions: APCs from untreated mice, FIG. 9
# Source text: (§1) Next the mechanisms of disease suppression were investigated.
# NOD.c3c4.scid mice = test: Transfer of disease protection by liver iNKT cells to NOD.c3c4.scid mice reconstituted with diseased splenocytes; assay type: in vivo, mouse; conditions: vs liver iNKT cells from control NOD.c3c4 donors; FIG. 10
# Source text: as §1
# wild-type NOD.c3c4 mice = test: Cytokine/cytokine receptor blockade of therapeutic activity in treated NOD.c3c4 mice; assay type: in vivo, mouse
# [3] = test system: liver iNKT cells, Kupffer cells and B-lymphocytes; test: Spinning-disk confocal intravital microscopy of liver in Cxcr6GFP/+ Ifng-Delta-ARE+/- (NOD×B6) F1 mice; assay type: in vivo, mouse
# Source text: To get further insights into downstream cellular targets, spinning-disk confocal intravital microscopy was used to track αGalCer/CD1d-NP-induced iNKT cells, Kuppfer cells, and B-lymphocytes in the livers of treated and untreated Ifng-Delta-ARE^+/− (NOD×B6) F1 mice, which also develop spontaneous PBC-like disease. To track iNKT cells in vivo, Cxcr6^GFP/+ mice were used, in which 60-80% of liver eGFP+ cells are iNKT cells, the remainder being NK and T-cells (Geissmann et al., 2005; Liew et al., 2017). In sterile injury in the liver, recognition of endogenous glycolipid ligands on endothelial cells, Kupffer cells and other CD1d-expressing liver cells by iNKT cells result in the conversion of proinflammatory CCR2+ Ly6Chi monocytes into regulatory CX3CR1+ Ly6Clow monocytes, a process that is driven by iNKT-cell-derived IL-4. […] Although there were similar numbers of B-cells in the liver of untreated mice, they […] in interactions with Cxcr6+ cells to the same extent. […] See Lee, W. Y., et al. (2010). “An intravascular immune response to Borrelia burgdorferi involves Kupffer cells and iNKT cells” Nat. Immunol. 11, 295-302.
# B-cells = test: Breg cell formation from transferred Il10-eGFP B cells in treated NOD.c3c4 mice; assay type: in vivo, mouse; conditions: within 7 days of transfer; B-cells pulsed with αGalCer or not
# Source text: This was done by transferring αGalCer-pulsed or non-pulsed B cells carrying an eGFP transgene in the Il10 locus into αGalCer/CD1d-NP-treated or untreated NOD.c3c4 mice, and enumerated the frequency of transferred CD5+ and CD1d^high B-cells that acquired eGFP expression within 7 days. […] Thus, αGalCer/CD1d-NP treatment triggers iNKTR1 cell formation which then drive Breg cell formation by recognizing endogenous B-cell antigenic ligand(s) in a CD1d-restricted manner.
# [4] = flow cytometry, vs liver iNKT cells of control (untreated or Cys-NP-treated) mice, FIG. 4
# [5] = treated NOD.c3c4 mice, not shown
# [6] = RNAseq, negative in liver iNKT cells of untreated mice
# [7] = RNAseq, treated mice, unlike iNKT10 cells
# [8] = RNAseq, treated vs untreated mice
substance,measurement,setting,value
αGalCer/CD1d-NP: nanoparticles coupled to CD1d molecules whose binding groove is loaded with alpha-galactosylceramide (KRN7000),effect on spontaneous PBC-like disease,[1],profound suppressive effect
same,CD4/CD8 phenotype of splenic and liver-associated iNKT cells,"iNKT cells; at the expense of CD4−CD8− iNKT cells, FIG. 3",enriched for CD4+CD8− iNKTs
same,CD69 level on iNKT cells,iNKT cells; [4],significantly higher levels
same,CD49d level on iNKT cells,iNKT cells; [4],significantly higher levels
same,Lag-3 level on iNKT cells,iNKT cells; [4],significantly higher levels
same,PD1 level on iNKT cells,iNKT cells; [4],significantly higher levels
same,circulating frequency of iNKT cells,iNKT cells; [5],slight increase
same,iNKT content in spleen and lymph nodes (liver-draining and not),iNKT cells; [5],slight decrease
same,expression levels of compared genes in induced liver iNKT cells vs TR1 cells,"liver iNKT cells; 66 genes, normalized gene counts, FIG. 8",highly similar levels of expression
same,genes with >4-fold differences in expression compared with TR1 cells,"liver iNKT cells; FIG. 8, number of genes",66
same,IL-10 (Il10) expression in liver iNKT cells,"liver iNKT cells; RNA, treated vs untreated mice",high upregulation; also recorded: Il10-high; also recorded: several hundred-fold higher levels
same,IL-21 (Il21) expression in liver iNKT cells,"liver iNKT cells; RNA, treated vs untreated mice",Il21-high; also recorded: high upregulation; also recorded: several hundred-fold higher levels
same,CTLA4 (Ctla4) expression in liver iNKT cells,liver iNKT cells; [6],high levels; also recorded: high upregulation
same,Itga4 (CD49d) expression in liver iNKT cells,liver iNKT cells; [6],high levels
same,Lag3 expression in liver iNKT cells,liver iNKT cells; [6],high levels; also recorded: high upregulation
same,Slamf6 expression in liver iNKT cells,liver iNKT cells; [6],high levels
same,Bcl6 expression in liver iNKT cells,"liver iNKT cells; RNAseq, treated mice",Bcl6-low; also recorded: low levels
same,Ccr6 expression in liver iNKT cells,"liver iNKT cells; RNAseq, treated mice",significantly downregulated
same,Il7r expression in liver iNKT cells,"liver iNKT cells; RNAseq, treated mice",significantly downregulated; also recorded: Il7r-low
same,Itgae (CD103) expression in liver iNKT cells,"liver iNKT cells; RNAseq, treated mice",significantly downregulated
same,Nrp1 expression in liver iNKT cells,"liver iNKT cells; RNAseq, treated mice",Nrp1-low
same,Tnfrsf14 (BTLA) expression in liver iNKT cells,"liver iNKT cells; RNAseq, treated mice",significantly downregulated
same,Fr4 expression in liver iNKT cells,liver iNKT cells; [7],Fr4−
same,Nfil3 expression in liver iNKT cells,liver iNKT cells; [7],Nfli3−
same,Cxcr5 expression in liver iNKT cells,"liver iNKT cells; RNAseq, treated mice, unlike iNKT-FH cells",lack expression
same,Gata3 expression in liver iNKT cells,liver iNKT cells; [8],significantly upregulated
same,PD1 expression in liver iNKT cells,liver iNKT cells; [8],high upregulation
same,TIGIT expression in liver iNKT cells,liver iNKT cells; [8],high upregulation
same,Vdr expression in liver iNKT cells,liver iNKT cells; [8],significantly upregulated
same,c-maf (Maf) expression in liver iNKT cells,liver iNKT cells; [8],high upregulation; also recorded: Maf-high; also recorded: significantly upregulated
same,Il2rb expression in liver iNKT cells,"liver iNKT cells; RNAseq, untreated: Il2rb+",Il2rb+
same,Il17rb expression in liver iNKT cells,"liver iNKT cells; RNAseq, untreated: Il17rb-low",Il17rb−
same,Rorc expression in liver iNKT cells,"liver iNKT cells; RNAseq, untreated: Rorc-low",Rorc−
same,Tgfbr2 expression in liver iNKT cells,"liver iNKT cells; RNAseq, untreated: Tgfbr2+",Tgfbr2-low
same,differentially expressed genes shared by the TR1 cells,"liver iNKT cells; of 238, comparison of RNA-seq profiles",91
same,differentially expressed genes also upregulated in cognate TR1-like CD4+ T-cells of pMHCII-NP-treated mice,"liver iNKT cells; of 238, number of genes",138
same,"downregulated genes co-regulated by Maf, Gata3 and Vdr","liver iNKT cells; of the 71 downregulated, FIG. 7",none
same,"upregulated protein-coding genes co-regulated by Maf, Gata3 and Vdr","liver iNKT cells; of the 135 upregulated, FIG. 7",66
same,differentially expressed genes also upregulated in cognate TR1-like CD4+ T-cells of pMHCII-NP-treated mice,liver iNKT cells; share of 238 genes,58%
same,number of differentially expressed genes in liver iNKT cells,liver iNKT cells; treated vs untreated mice,238
same,number of downregulated protein-coding genes in liver iNKT cells,liver iNKT cells; treated vs untreated mice,71
same,number of upregulated protein-coding genes in liver iNKT cells,liver iNKT cells; treated vs untreated mice,135
same,suppression of presentation of IGRP206-214 peptide to cognate TCR-transgenic CD8+ T-cells,[2],could suppress
same,transfer of disease protection by liver iNKT cells from treated mice,NOD.c3c4.scid mice,could transfer disease protection
same,effect of IL-21R blockade on therapeutic activity,"wild-type NOD.c3c4 mice; mouse, in vivo",abrogated
same,inhibition of therapeutic activity by IFNγ blockade,wild-type NOD.c3c4 mice; wild-type NOD.c3c4 mice,not
same,inhibition of therapeutic activity by IL-4 blockade,wild-type NOD.c3c4 mice; wild-type NOD.c3c4 mice,to a lesser extent
same,inhibition of therapeutic activity by IL-10 blockade,wild-type NOD.c3c4 mice; wild-type NOD.c3c4 mice,partially inhibited
same,B-cell killing through iNKT-B-cell interactions,[3]; 4 days after the last dose,did not appear to result in B-cell killing
same,interaction of liver iNKT cells with B-cells,"[3]; 4 days after the last dose, anti-CD19 labelled B-cells",seeking and engaging
same,number of liver iNKT cells,"[3]; bi-weekly treatment, vs untreated mice",massive increase
same,motility of liver iNKT cells,[3]; imaged 4 days after the last dose,highly motile
same,motility of liver iNKT cells,[3]; imaged within 4 hours of a dose,stopped moving
same,conversion of transferred B-cells into IL-10/eGFP-expressing CD1d-high/CD5+ Breg cells,B-cells,"Breg cell formation in treated, but not untreated animals; also recorded: can trigger the conversion"
